Measured values taken from patent publication US5672715A, “Herbicidal substituted 3-aryl-pyrazoles” (Monsanto Company, priority 1995, dated 1997).
Read-outs that look alike come from different tables or passages of the source.

Assays:
Assay type in all cases: in vivo
[1] = system: Morning Glory; experiment: pre-emergence herbicide test; details: Ipomoea, pre-emergence, read-out: % plant inhibition; for inhibition at 1000.92 g/ha: 0.893 lb/A
How it was run: (§1)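 Seeds were sown on compacted topsoil in pans and covered with a topsoil layer carrying a known amount of active ingredient in acetone or water, applied before or after covering. Pans were bottom-watered on a greenhouse bench, and % inhibition was scored about 14 days after seeding and treatment.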

[2] = system: Velvetleaf; experiment: pre-emergence herbicide test; details: Abutilon theophrasti, pre-emergence, read-out: % plant inhibition; for inhibition at 1000.92 g/ha: 0.893 lb/A
How it was run: as §1

[3] = system: Yellow Foxtail; experiment: pre-emergence herbicide test; details: Setaria, read-out: % plant inhibition; for inhibition at 1000.92 g/ha: 0.893 lb/A
How it was run: as §1

[4] = system: Yellow Nutsedge; experiment: pre-emergence herbicide test; details: Cyperus, read-out: % plant inhibition; for inhibition at 1000.92 g/ha: 0.893 lb/A
How it was run: as §1

[5] = system: Barnyardgrass; experiment: post-emergence herbicide test; details: Echinochloa crus-galli, post-emergence, read-out: % plant inhibition; for inhibition at 200.072 g/ha: 0.1785 lb/A; for inhibition at 1000.92 g/ha: 0.893 lb/A
How it was run: (§2)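 Greenhouse plants grown from seeds in topsoil were treated two to three weeks after sowing with a spray solution or suspension of test chemical with about 0.4% by volume emulsifier, applied at 1870 L/Ha and 170.3 kPa. Percent inhibition per species was the endpoint.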

[6] = system: Bedstraw Catchweed; experiment: post-emergence herbicide test; details: Galium aparine, post-emergence, read-out: % plant inhibition; for inhibition at 200.072 g/ha: 0.1785 lb/A; for inhibition at 1000.92 g/ha: 0.893 lb/A
How it was run: as §2

[7] = system: Blackgrass; experiment: post-emergence herbicide test; details: Alopecurus myosuroides, post-emergence, read-out: % plant inhibition; for inhibition at 7.95803 g/ha: 0.0071 lb/A; for inhibition at 40.0143 g/ha: 0.0357 lb/A; for inhibition at 200.072 g/ha: 0.1785 lb/A; for inhibition at 1000.92 g/ha: 0.893 lb/A; for inhibition at 5043.82 g/ha: 4.5 lb/A
How it was run: as §2

[8] = system: Cocklebur; experiment: post-emergence herbicide test; details: Xanthium strumarium, post-emergence, read-out: % plant inhibition; for inhibition at 200.072 g/ha: 0.1785 lb/A; for inhibition at 1000.92 g/ha: 0.893 lb/A
How it was run: as §2

[9] = system: Common Chickweed; experiment: post-emergence herbicide test; details: post-emergence, read-out: % plant inhibition; for inhibition at 200.072 g/ha: 0.1785 lb/A; for inhibition at 1000.92 g/ha: 0.893 lb/A
How it was run: as §2

[10] = system: Corn; experiment: post-emergence herbicide test; details: Zea mays, post-emergence, read-out: % plant inhibition; for inhibition at 200.072 g/ha: 0.1785 lb/A; for inhibition at 1000.92 g/ha: 0.893 lb/A
How it was run: as §2

[11] = system: Morning Glory; experiment: post-emergence herbicide test; details: Ipomoea, post-emergence, read-out: % plant inhibition; for inhibition at 200.072 g/ha: 0.1785 lb/A; for inhibition at 1000.92 g/ha: 0.893 lb/A
How it was run: as §2

[12] = system: Soybean; experiment: post-emergence herbicide test; details: Glycine max, post-emergence, read-out: % plant inhibition; for inhibition at 200.072 g/ha: 0.1785 lb/A; for inhibition at 1000.92 g/ha: 0.893 lb/A
How it was run: as §2

[13] = system: Velvetleaf; experiment: post-emergence herbicide test; details: Abutilon theophrasti, post-emergence, read-out: % plant inhibition; for inhibition at 200.072 g/ha: 0.1785 lb/A; for inhibition at 1000.92 g/ha: 0.893 lb/A
How it was run: as §2

[14] = system: Wheat; experiment: post-emergence herbicide test; details: Triticum aestivum, post-emergence, read-out: % plant inhibition; for inhibition at 200.072 g/ha: 0.1785 lb/A; for inhibition at 1000.92 g/ha: 0.893 lb/A
How it was run: as §2

[15] = system: Yellow Foxtail; experiment: post-emergence herbicide test; details: Setaria, read-out: % plant inhibition; for inhibition at 200.072 g/ha: 0.1785 lb/A; for inhibition at 1000.92 g/ha: 0.893 lb/A
How it was run: as §2

[16] = system: Yellow Nutsedge; experiment: post-emergence herbicide test; details: Cyperus, read-out: % plant inhibition; for inhibition at 200.072 g/ha: 0.1785 lb/A; for inhibition at 1000.92 g/ha: 0.893 lb/A
How it was run: as §2

COc1cc(-c2nn(C)c(C(F)(F)F)c2C)c(F)cc1Cl [Compound 37]
45%: inhibition at 1000.92 g/ha [4] | inhibition at 1000.92 g/ha [5] | inhibition at 40.0143 g/ha ([11]; 0.0357 lb/A)
10%: inhibition at 7.95803 g/ha ([7]; Table 5a) | inhibition at 200.072 g/ha ([7]; Table 4a) | inhibition at 40.0143 g/ha ([10]; 0.0357 lb/A) | inhibition at 7.95803 g/ha ([12]; 0.0071 lb/A) | inhibition at 200.072 g/ha [14] | inhibition at 40.0143 g/ha ([16]; 0.0357 lb/A)
35%: inhibition at 40.0143 g/ha ([4]; 0.0357 lb/A) | inhibition at 40.0143 g/ha ([6]; 0.0357 lb/A) | inhibition at 40.0143 g/ha ([13]; 0.0357 lb/A)
50%: inhibition at 200.072 g/ha ([4]; 0.1785 lb/A) | inhibition at 200.072 g/ha [10] | inhibition at 200.072 g/ha [13]
20%: inhibition at 7.95803 g/ha ([6]; 0.0071 lb/A) | inhibition at 40.0143 g/ha ([15]; 0.0357 lb/A)
55%: inhibition at 7.95803 g/ha ([3]; 0.0071 lb/A) | inhibition at 200.072 g/ha [8]
100%: inhibition at 1000.92 g/ha [1] | inhibition at 40.0143 g/ha ([2]; 0.0357 lb/A) | inhibition at 200.072 g/ha ([2]; 0.1785 lb/A) | inhibition at 280.212 g/ha ([2]; 0.25 lb/A) | inhibition at 1000.92 g/ha [2] | inhibition at 200.072 g/ha ([3]; 0.1785 lb/A) | inhibition at 280.212 g/ha ([3]; 0.25 lb/A) | inhibition at 1000.92 g/ha [3] | inhibition at 1000.92 g/ha [10] | inhibition at 1000.92 g/ha [11] | inhibition at 1000.92 g/ha [13]
25%: inhibition at 40.0143 g/ha ([7]; Table 5a) | inhibition at 7.95803 g/ha ([13]; 0.0071 lb/A)
5%: inhibition at 7.95803 g/ha ([8]; 0.0071 lb/A) | inhibition at 7.95803 g/ha ([10]; 0.0071 lb/A) | inhibition at 7.95803 g/ha ([14]; 0.0071 lb/A)
60%: inhibition at 1000.92 g/ha [12]
80%: inhibition at 7.95803 g/ha ([1]; 0.0071 lb/A) | inhibition at 1000.92 g/ha [8] | inhibition at 1000.92 g/ha [9]
70%: inhibition at 200.072 g/ha [9]
30%: inhibition at 1000.92 g/ha [14]
40%: inhibition at 40.0143 g/ha ([8]; 0.0357 lb/A) | inhibition at 40.0143 g/ha ([9]; 0.0357 lb/A) | inhibition at 40.0143 g/ha ([12]; 0.0357 lb/A) | inhibition at 200.072 g/ha [12] | inhibition at 1000.92 g/ha [16]
0%: inhibition at 7.95803 g/ha ([4]; 0.0071 lb/A) | inhibition at 7.95803 g/ha ([5]; 0.0071 lb/A) | inhibition at 7.95803 g/ha ([7]; Table 4a) | inhibition at 40.0143 g/ha ([7]; Table 4a) | inhibition at 7.95803 g/ha ([9]; 0.0071 lb/A) | inhibition at 7.95803 g/ha ([11]; 0.0071 lb/A) | inhibition at 40.0143 g/ha ([14]; 0.0357 lb/A) | inhibition at 7.95803 g/ha ([15]; 0.0071 lb/A) | inhibition at 7.95803 g/ha ([16]; 0.0071 lb/A)
65%: inhibition at 200.072 g/ha [5] | inhibition at 200.072 g/ha ([7]; Table 5a) | inhibition at 200.072 g/ha [15] | inhibition at 1000.92 g/ha [15]
85%: inhibition at 1000.92 g/ha ([7]; Table 5a)
75%: inhibition at 200.072 g/ha [6]
90%: inhibition at 200.072 g/ha ([1]; 0.1785 lb/A) | inhibition at 1000.92 g/ha [6]
98%: inhibition at 40.0143 g/ha ([1]; 0.0357 lb/A) | inhibition at 280.212 g/ha ([1]; 0.25 lb/A) | inhibition at 7.95803 g/ha ([2]; 0.0071 lb/A)
95%: inhibition at 40.0143 g/ha ([3]; 0.0357 lb/A) | inhibition at 200.072 g/ha [11]
15%: inhibition at 40.0143 g/ha ([5]; 0.0357 lb/A) | inhibition at 1000.92 g/ha ([7]; Table 4a) | inhibition at 200.072 g/ha [16]

Cc1c(-c2cc(F)ccc2F)nn(C)c1C(F)(F)F [Compound 1, 3-(2,5-Difluorophenyl)-1,4-dimethyl-5-(trifluoromethyl)-1H-pyrazole]
40%: inhibition at 5043.82 g/ha ([9]; 4.5 lb/A) | inhibition at 5043.82 g/ha ([10]; 4.5 lb/A)
50%: inhibition at 5043.82 g/ha ([15]; 4.5 lb/A)
15%: inhibition at 5043.82 g/ha ([11]; 4.5 lb/A)
20%: inhibition at 5043.82 g/ha ([13]; 4.5 lb/A)
65%: inhibition at 5043.82 g/ha ([2]; 4.5 lb/A)
35%: inhibition at 5043.82 g/ha ([1]; 4.5 lb/A) | inhibition at 5043.82 g/ha ([3]; 4.5 lb/A) | inhibition at 5043.82 g/ha ([7]; Table 5a)
45%: inhibition at 5043.82 g/ha ([4]; 4.5 lb/A)
0%: inhibition at 1000.92 g/ha [1] | inhibition at 1000.92 g/ha [2] | inhibition at 1000.92 g/ha [3] | inhibition at 1000.92 g/ha [4] | inhibition at 200.072 g/ha [5] | inhibition at 1000.92 g/ha [5] | inhibition at 5043.82 g/ha ([5]; 4.5 lb/A) | inhibition at 200.072 g/ha [6] | inhibition at 1000.92 g/ha [6] | inhibition at 200.072 g/ha ([7]; Table 4a) | inhibition at 200.072 g/ha ([7]; Table 5a) | inhibition at 1000.92 g/ha ([7]; Table 4a) | inhibition at 1000.92 g/ha ([7]; Table 5a) | inhibition at 5043.82 g/ha ([7]; Table 4a) | inhibition at 200.072 g/ha [8] | inhibition at 1000.92 g/ha [8] | inhibition at 5043.82 g/ha ([8]; 4.5 lb/A) | inhibition at 200.072 g/ha [9] | inhibition at 1000.92 g/ha [9] | inhibition at 200.072 g/ha [10] | inhibition at 1000.92 g/ha [10] | inhibition at 200.072 g/ha [11] | inhibition at 1000.92 g/ha [11] | inhibition at 200.072 g/ha [12] | inhibition at 1000.92 g/ha [12] | inhibition at 5043.82 g/ha ([12]; 4.5 lb/A) | inhibition at 200.072 g/ha [13] | inhibition at 1000.92 g/ha [13] | inhibition at 200.072 g/ha [14] | inhibition at 1000.92 g/ha [14] | inhibition at 200.072 g/ha [15] | inhibition at 1000.92 g/ha [15] | inhibition at 200.072 g/ha [16] | inhibition at 1000.92 g/ha [16]
10%: inhibition at 5043.82 g/ha ([14]; 4.5 lb/A)
30%: inhibition at 5043.82 g/ha ([6]; 4.5 lb/A) | inhibition at 5043.82 g/ha ([16]; 4.5 lb/A)
